Experimental data taken from patent US9227921B2, “Salts and polymorphs of a tetracycline compound” (Paratek Pharmaceuticals, Inc., priority 2008, dated 2016).
Values belong to the molecule of their own block, whether it stands above or below them.

What was measured:
[1] = Temperature and moisture stability study (HPLC impurity profile); format: physicochemical
Procedure: A stability study was conducted on tosylate salt and mesylate salt of Compound 1, by monitoring changes in the high performance liquid chromatography (HPLC) impurity profiles for each salt when exposed to various temperatures and/or humidity conditions. Each sample was placed in a closed container and exposed to three controlled environments: refrigerated (5° C.), 20° C. and 60% relative humidity, and 40° C. and 75% relative humidity. […] The stability study of the crystalline tosylate salt was continued.
Samples were analyzed by the following reversed-phase HPLC impurity profile method at time points 0, 1, 2, 4 weeks (Table 7) and 3 months (Table 8) for the tosylate salt; and 0, 1 and 2 weeks for the mesylate salt (Table 9).
Reversed-phase HPLC analysis was conducted using a SYMMETRY SHIELD RP18 column (4.6×250 mm, 5 µm particle size), although analysis using a similar or equivalent column would be expected to yield similar results. The mobile phase components were 0.01 M ammonium acetate in water at pH 3.3 (A) and acetonitrile (B). The mobile phase composition was a gradient that increased from 6% to 15% B in five minutes, held at 15% B for 15 minutes, increased from 15% to 60% B in ten minutes, then from 60% to 90% B in two minutes, and then the system was re-equilibrated at 6% B for four minutes. The flow rate was 1.0 mL/minute, and the injection volume was 10.0 μL. The column temperature was maintained at 30° C. Detection was by ultraviolet light (UV) at 280 nm. The retention time for Compound 1 was approximately 15.7 minutes. The sample solution was prepared in mobile phase A to a final concentration of 2.0 mg/mL.

[2] = Relative stabilities of the polymorphic forms (maturation / slurry, XRPD); format: physicochemical
Procedure: The relative stabilities of the polymorphic forms of Compound 1 were analyzed. For example, form 1 tosylate salt was subjected to a maturation experiment for 24 hours in either IPA or methyl pentanone, seeded with either form 2 or form 3 tosylate salt. […] A slurry of a 50:50 mixture of form 1 and form 3 were analyzed in IPA for 18 hours at 0° C., 25° C., 40° C., and 60° C., as shown in FIG. 7.

Compound 1 ([1]; 1 week, 5° C.): 98.2%
RRT 1.19 ([1]; 1 week, 5° C.): 0.17%
RRT 1.26 (beta-epimer) ([1]; 1 week, 5° C.): 1.6%
RRT 1.77 ([1]; 1 week, 5° C.): 0.08%
Total Impurities ([1]; 1 week, 5° C.): 1.85%
Compound 1 ([1]; 1 week, 20° C. & 60% RH): 98.0%
RRT 1.19 ([1]; 1 week, 20° C. & 60% RH): 0.17%
RRT 1.26 (beta-epimer) ([1]; 1 week, 20° C. & 60% RH): 1.8%
RRT 1.77 ([1]; 1 week, 20° C. & 60% RH): 0.09%
Total Impurities ([1]; 1 week, 20° C. & 60% RH): 2.06%
Compound 1 ([1]; 1 week, 40° C. & 75% RH): 97.1%
RRT 0.52 ([1]; 1 week, 40° C. & 75% RH): 0.07%
RRT 0.77 ([1]; 1 week, 40° C. & 75% RH): 0.05%
RRT 1.19 ([1]; 1 week, 40° C. & 75% RH): 0.16%
RRT 1.26 (beta-epimer) ([1]; 1 week, 40° C. & 75% RH): 2.6%
RRT 1.77 ([1]; 1 week, 40° C. & 75% RH): 0.09%
Total Impurities ([1]; 1 week, 40° C. & 75% RH): 2.97%
Compound 1 ([1]; 2 weeks, 5° C.): 98.3%
RRT 0.93 ([1]; 2 weeks, 5° C.): 0.06%
RRT 1.19 ([1]; 2 weeks, 5° C.): 0.20%
RRT 1.26 (beta-epimer) ([1]; 2 weeks, 5° C.): 1.3%
RRT 1.77 ([1]; 2 weeks, 5° C.): 0.09%
Total Impurities ([1]; 2 weeks, 5° C.): 1.65%
Compound 1 ([1]; 2 weeks, 20° C. & 60% RH): 98.1%
RRT 0.93 ([1]; 2 weeks, 20° C. & 60% RH): 0.06%
RRT 1.19 ([1]; 2 weeks, 20° C. & 60% RH): 0.20%
RRT 1.26 (beta-epimer) ([1]; 2 weeks, 20° C. & 60% RH): 0.11%
RRT 1.77 ([1]; 2 weeks, 20° C. & 60% RH): 0.11%
Total Impurities ([1]; 2 weeks, 20° C. & 60% RH): 1.87%
Compound 1 ([1]; 2 weeks, 40° C. & 75% RH): 96.6%
RRT 0.52 ([1]; 2 weeks, 40° C. & 75% RH): 0.05%
RRT 0.77 ([1]; 2 weeks, 40° C. & 75% RH): 0.07%
RRT 0.93 ([1]; 2 weeks, 40° C. & 75% RH): 0.06%
RRT 1.19 ([1]; 2 weeks, 40° C. & 75% RH): 0.19%
RRT 1.26 (beta-epimer) ([1]; 2 weeks, 40° C. & 75% RH): 0.11%
RRT 1.77 ([1]; 2 weeks, 40° C. & 75% RH): 0.11%
Total Impurities ([1]; 2 weeks, 40° C. & 75% RH): 3.38%
stability ([1]; 5° C.): unstable
Compound 1 ([1]; Initial): 98.3%
RRT 1.19 ([1]; Initial): 0.20%
RRT 1.26 (beta-epimer) ([1]; Initial): 1.5%
Total Impurities ([1]; Initial): 1.70%
Compound: CN(C)c1cc(CNCC(C)(C)C)c(O)c2c1CC1CC3C(N(C)C)C(O)=C(C(N)=O)C(=O)C3(O)C(O)=C1C2=O.CS(=O)(=O)O (centres unmarked) [mesylate salt of Compound 1]

change of polymorphic form in slurry ([2]; 50:50 mixture of form 1 and form 3 in IPA, 18 hours at 0° C., 25° C., 40° C., 60° C.): no change of form 1 into form 3
change of polymorphic form on maturation ([2]; 24 hours in IPA or methyl pentanone, seeded with form 2 or form 3 tosylate salt): no change of form 1 into form 2 or 3
Compound: CN(C)c1cc(CNCC(C)(C)C)c(O)c2c1CC1CC3C(N(C)C)C(O)=C(C(N)=O)C(=O)C3(O)C(O)=C1C2=O.Cc1ccc(S(=O)(=O)O)cc1 (centres unmarked) [form 1 tosylate salt]
